Patent US20250136612A1, “4',5'-DIHYDROSPIRO[PIPERIDINE-4,7'-THIENO[2,3-C]PYRAN] DERIVATIVES AS INHIBITORS OF APOL1 AND METHODS OF USING SAME” (VERTEX PHARMACEUTICALS INCORPORATED, priority 2022, published 2025)

Biological target: T1, APOL1 (Homo sapiens, UniProt O14791)
T1 sequence (O14791 1-398 S342G/I384M): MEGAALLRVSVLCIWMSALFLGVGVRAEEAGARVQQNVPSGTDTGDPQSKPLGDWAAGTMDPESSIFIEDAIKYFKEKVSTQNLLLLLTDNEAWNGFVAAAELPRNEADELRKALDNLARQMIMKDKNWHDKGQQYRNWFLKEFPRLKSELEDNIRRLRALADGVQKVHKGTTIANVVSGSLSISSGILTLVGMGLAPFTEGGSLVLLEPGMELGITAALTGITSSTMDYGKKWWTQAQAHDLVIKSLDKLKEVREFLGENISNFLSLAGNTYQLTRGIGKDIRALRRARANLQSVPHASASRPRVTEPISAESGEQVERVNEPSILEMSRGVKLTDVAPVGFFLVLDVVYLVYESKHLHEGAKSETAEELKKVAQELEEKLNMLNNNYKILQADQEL
Assay: MultiTox-Fluor Multiplex Cytotoxicity Assay in tet-inducible APOL1 T-REx-HEK293 cells
Assay type: cell-based
Conditions: 50 ng/mL tet, 24 hours, ratio of dead to live cells, read-out: IP50 (i.e., IC50 for cell proliferation)
Procedure: The MultiTox-Fluor Multiplex Cytotoxicity Assay is a single-reagent-addition, homogeneous, fluorescence assay that measures the number of live and dead cells simultaneously in culture wells. The assay measures cell viability and cytotoxicity by detecting two distinct protease activities. The live-cell protease activity is restricted to intact viable cells and is measured using a fluorogenic, cell-permeant peptide glycyl-phenylalanylamino fluorocoumarin (GF-AFC) substrate. The substrate enters intact cells, where it is cleaved to generate a fluorescent signal proportional to the number of living cells. […] A second, cell-impermeant, fluorogenic peptide substrate (bis-AAF-R110 Substrate) is used to measure dead-cell protease that has been released from cells that have lost membrane integrity. A ratio of dead to live cells is used to normalize data.
Briefly, the tet-inducible transgenic APOL1 T-REx-HEK293 cell lines were incubated with 50 ng/mL tet to induce APOL1 in the presence of 3-(2-(4-fluorophenyl)-1H-indol-3-yl)-N-((3S,4R)-4-hydroxy-2-oxopyrrolidin-3-yl)propenamide at 10.03, 3.24, 1.13, 0.356, 0.129, 0.042, 0.129, 0.0045, 0.0015, 0.0005 μM in duplicate for 24 hours in a humidified 37° C. incubator. The MultiTox reagent was added to each well and placed back in the incubator for an additional 30 minutes. The plate was read on the EnVision plate reader. A ratio of dead to live cells was used to normalize, and data was imported, analyzed, and fit using Genedata Screener (Basel, Switzerland) software. Data was normalized using percent of control, no tet (100% viability), and 50 ng/mL tet treated (0% viability),and fit using Smart Fit. The reagents, methods, and complete protocol for the MultiTox assay are described below.
Human embryonic kidney (HEK293) cell lines containing a tet-inducible expression system (T-REx™; Invitrogen, Carlsbad, CA) and Adeno-associated virus site 1 pAAVS1-Puro-APOL1 G0 or pAAVS1-Puro-APOL1 G1 or pAAVS1-Puro-APOL1 G2 Clones G0 DC2.13, G1 DC3.25, and G2 DC4.44 were grown in a T-225 flask at ˜90% confluency in cell growth media (DMEM, 10% Tet-free FBS, 2 mM L-glutamine, 100 Units/mL penicillin-streptomycin, 5 μg/mL blasticidin S HCl, 1 μg/mL puromycin dihydrochloride). Cells were washed with DPBS and then trypsinized to dissociate from the flask. Media was used to quench the trypsin, cells were then pelleted at 200 g and resuspended in fresh cell assay media (DMEM, 2% Tet-free FBS, 2 mM L-glutamine, 100 Units/mL penicillin-streptomycin). Cells were counted and diluted to 1.17×10^6 cells/mL. 20 μL of cells (23,400/well) were dispensed in every well of a 384-well Poly-D-Lysine coated plate using the Multidrop dispenser. The plates were then incubated at room temperature for one hour.
Tetracycline is needed to induce APOL1 expression. 1 mg/mL tet stock in water was diluted to 250 ng/mL (5×) in cell assay media. 60 μL of cell assay media (no tet control) was dispensed in columns 1 and 24, and 60 μL of 5×tet in 384-PP-round bottom plate was dispensed in columns 2 to 23 with the Multidrop dispenser.
Assay ready plates from the Global Compound Archive were ordered using template 384_APOL1Cell_DR10n2_50 uM_v3. Compounds were dispensed at 200 nL in DMSO. The final top concentration was 10 μM with a 10 point 3-fold dilution in duplicate in the MultiTox assay.
20 μL was transferred from the 5×tet plate to the ARP and mixed, then 5 μL of 5×tet and the compounds were transferred to the cell plate and mixed using the Bravo. The cell plate was placed in the humidified 37° C. 5% CO2 incubator for 24 hours.
The MultiTox-Fluor Multiplex Cytotoxicity Assay was performed in accordance with the manufacturer's protocol. After cells were incubated with tet and compound for 24 hours, 25 μL of 1×MultiTox reagent was added to each well using the Multidrop dispenser; the plates were placed on a plate shaker (600 rpm) for 2 minutes, then centrifuged briefly and placed back in the 37° C. incubator for 30 minutes. […]

Compound `Cn1cc([C@@H]2C[C@]3(CCN2)OCCc2cc(Cl)sc23)nn1` (single isomer, unassigned) [Compound 2] has an IC50 of 100 to 500 nM.

`Cc1cc([C@@H]2C[C@]3(CCN2)OCCc2cc(Cl)sc23)no1` (single isomer, unassigned) [Compound 23] showed an IC50 of 100 to 500 nM.

With `Cn1cc([C@@H]2C[C@]3(CCN2)OCCc2cc(Cl)sc23)cn1` (single isomer, unassigned) [Compound 24] the IC50 was < 100 nM.

With `Cc1cc([C@@H]2C[C@]3(CCN2)OCCc2cc(Cl)sc23)on1` (single isomer, unassigned) [Compound 25] the IC50 was 100 to 500 nM.

`CCc1cc2c(s1)CCOC21CCNC(C2CC2)C1` (single isomer, unassigned) [Compound 29, 2′-cyclopropyl-2-ethyl-spiro[6,7-dihydrothieno[3,2-c]pyran-4,4′-piperidine]] gave an IC50 of 500 to 1000 nM.

`Cn1cc([C@@H]2C[C@]3(CCN2)OCCc2cc(C4CC4)sc23)nn1` (single isomer, unassigned) [Compound 31] gave an IC50 of 100 to 500 nM.

`Cc1cc2c(s1)C1(CCN[C@H](c3cn(C)nn3)C1)OCC2` (single isomer, unassigned) [Compound 32] was tested, and the IC50 was 100 to 500 nM.

`Cn1cc([C@@H]2C[C@]3(CCN2)OCC(C)(O)c2cc(Cl)sc23)nn1` (single isomer, unassigned) [Compound 37] showed an IC50 of 500 to 1000 nM.

`Cn1cc([C@@H]2C[C@]3(CCN2)OCC(C)(O)c2cc(Cl)sc23)nn1` (single isomer, unassigned) [Compound 38] gave an IC50 of 100 to 500 nM.

In the case of `Cn1cc([C@@H]2C[C@]3(CCN2)OCC(O)(C(F)F)c2cc(Cl)sc23)nn1` (single isomer, unassigned) [Compound 39], the IC50 is reported as 500 to 1000 nM.

With `Cn1cc([C@@H]2C[C@]3(CCN2)OCC(O)(C(F)F)c2cc(Cl)sc23)nn1` (single isomer, unassigned) [Compound 40] the IC50 was < 100 nM.

Compound `COC1CO[C@]2(CCN[C@H](c3cn(C)nn3)C2)c2sc(Cl)cc21` (single isomer, unassigned) [Compound 42] has an IC50 of 500 to 1000 nM.

`Cn1cc(C2CC3(CCN2)OCC(O)c2cc(Br)sc23)nn1` (single isomer, unassigned) [Compound 44, 2-bromo-2′-(1-methyltriazol-4-yl)spiro[4,5-dihydrothieno[2,3-c]pyran-7,4′-piperidine]-4-ol] showed an IC50 of 500 to 1000 nM.

In the case of `Cn1cc(C2CC3(CCN2)OCC(O)c2cc(Br)sc23)nn1` (single isomer, unassigned) [Compound 45, 2-bromo-2′-(1-methyltriazol-4-yl)spiro[4,5-dihydrothieno[2,3-c]pyran-7,4′-piperidine]-4-ol], the IC50 is reported as < 100 nM.

For `CC(O)c1c(C(F)(F)F)sc2c1CCOC21CCN[C@H](c2cn(C)nn2)C1` (single isomer, unassigned) [Compound 52], the IC50 was 100 to 500 nM.

In the case of `CC(O)c1c(C(F)(F)F)sc2c1CCOC21CCN[C@H](c2cn(C)nn2)C1` (single isomer, unassigned) [Compound 53], the IC50 is reported as < 100 nM.

Compound `CCc1cc2c(s1)CCOC21CCNC(c2ccc(F)cc2)C1` (single isomer, unassigned) [Compound 78, 2-ethyl-2′-(4-fluorophenyl)spiro[6,7-dihydrothieno[3,2-c]pyran-4,4′-piperidine]] has an IC50 of 500 to 1000 nM.

In the case of `Cc1ncc(C2CC3(CCN2)OCCc2cc(Cl)sc23)cn1` (stereo not shown) [Compound 1, 2-chloro-2′-(2-methylpyrimidin-5-yl)spiro[4,5-dihydrothieno[2,3-c]pyran-7,4′-piperidine]], the IC50 is reported as 100 to 500 nM.

With `CCc1cc2c(s1)CCOC21CCNC(C2CC2)C1` (stereo not shown) [Compound 3, 2′-cyclopropyl-2-ethyl-spiro[6,7-dihydrothieno[3,2-c]pyran-4,4′-piperidine]] the IC50 was 100 to 500 nM.

With `CCc1cc2c(s1)C1(CCNC(c3cn(C)nn3)C1)OCC2` (stereo not shown) [Compound 4] the IC50 was 100 to 500 nM.

With `Cn1cc(C2CC3(CCN2)OCCc2cc(C(F)(F)F)sc23)nn1` (stereo not shown) [Compound 5] the IC50 was < 100 nM.

For `CCc1cc2c(s1)C1(CCNC(c3cc(C)no3)C1)OCC2` (stereo not shown) [Compound 6], the IC50 was < 100 nM.

`CCc1cc2c(s1)CCOC21CCNC(c2cnn(CCS(C)(=O)=O)c2)C1` (stereo not shown) [Compound 7] gave an IC50 of 100 to 500 nM.

`CCc1cc2c(s1)C(C)COC21CCNC(c2cn(C)nn2)C1` (stereo not shown) [Compound 9] showed an IC50 of 100 to 500 nM.

`CCc1cc2c(s1)CCOC21CCNC(c2cn(C)nn2)C1` (stereo not shown) [Compound 10] gave an IC50 of 100 to 500 nM.

In the case of `Cn1cc(C2CC3(CCN2)OCCc2sc(Cl)cc23)nn1` (stereo not shown) [Compound 11], the IC50 is reported as 500 to 1000 nM.

In the case of `Cn1cnc(C2CC3(CCN2)OCCc2cc(Cl)sc23)c1` (stereo not shown) [Compound 12], the IC50 is reported as 500 to 1000 nM.

`CCc1cc2c(s1)CCOC21CCNC(c2cn[nH]c2)C1` (stereo not shown) [Compound 13] gave an IC50 of 500 to 1000 nM.

`OCCn1cc(C2CC3(CCN2)OCCc2cc(Cl)sc23)cn1` (stereo not shown) [Compound 14] gave an IC50 of 500 to 1000 nM.

Compound `CCc1cc2c(s1)CCOC21CCNC(c2ccnnc2)C1` (stereo not shown) [Compound 15] has an IC50 of 500 to 1000 nM.

In the case of `CCc1cc2c(s1)CCOC21CCNC(C2(C)COC2)C1` (stereo not shown) [Compound 16], the IC50 is reported as 500 to 1000 nM.

`Cn1ncc(C2CC3(CCN2)OCCc2cc(Cl)sc23)n1` (stereo not shown) [Compound 17] showed an IC50 of 500 to 1000 nM.

For `CCc1cc2c(s1)CCOC21CCNC(c2cnc(C)nc2)C1` (stereo not shown) [Compound 18], the IC50 was 500 to 1000 nM.

`Clc1cc2c(s1)C1(CCNC(C3CC3)C1)OCC2` (stereo not shown) [Compound 19] was tested, and the IC50 was 500 to 1000 nM.

For `Cc1cc2c(s1)CCOC21CCNC(C2CC2)C1` (stereo not shown) [Compound 20], the IC50 was 500 to 1000 nM.

`FC(F)(F)c1cc2c(s1)CCOC21CCNC(C2CC2)C1` (stereo not shown) [Compound 21] was tested, and the IC50 was 100 to 500 nM.

With `Cn1cc([C@@H]2C[C@]3(CCN2)OCCc2cc(Br)sc23)nn1` [Compound 22] the IC50 was < 100 nM.

With `Clc1cc2c(s1)[C@@]1(CCN[C@H](c3cn[nH]c3)C1)OCC2` [Compound 26] the IC50 was < 100 nM.

`CC1CO[C@]2(CCN[C@H](c3cn(C)nn3)C2)c2cc(Cl)sc21` (stereo partly shown) [Compound 28] showed an IC50 of 100 to 500 nM.

Compound `Cn1cc([C@@H]2CC3(CCN2)OCCc2cc(C4CC4)sc23)nn1` (stereo partly drawn) [Compound 30, (2S)-2′-cyclopropyl-2-(1-methyl-1H-1,2,3-triazol-4-yl)-4′,5′-dihydrospiro[piperidine-4,7′-thieno[2,3-c]pyran]] has an IC50 of 500 to 1000 nM.

In the case of `Cn1cc([C@@H]2C[C@]3(CCN2)OCCc2cc(I)sc23)nn1` [Compound 33, (2S,4S)-2′-iodo-2-(1-methyl-1H-1,2,3-triazol-4-yl)-4′,5′-dihydrospiro[piperidine-4,7′-thieno[2,3-c]pyran]], the IC50 is reported as < 100 nM.

`Cc1cc([C@@H]2C[C@]3(CCN2)OCC(O)c2cc(Cl)sc23)on1` (stereo partly drawn) [Compound 34, (2S,4S)-2′-chloro-2-(3-methylisoxazol-5-yl)-4′,5′-dihydrospiro[piperidine-4,7′-thieno[2,3-c]pyran]-4′-ol] showed an IC50 of 100 to 500 nM.

`Cn1cc([C@@H]2C[C@]3(CCN2)OCC(O)c2cc(Cl)sc23)nn1` (stereo partly drawn) [Compound 35, (2S,4S)-2′-chloro-2-(1-methyl-1H-1,2,3-triazol-4-yl)-4′,5′-dihydrospiro[piperidine-4,7′-thieno[2,3-c]pyran]-4′-ol] gave an IC50 of 100 to 500 nM.
